Paper PMC7586386, “Discovery of Covalent Inhibitors Targeting the Transcriptional Enhanced Associate Domain Central Pocket” (Journal of Medicinal Chemistry, 2020)

What was measured:
[1] = target: TEAD central pocket; parameters: method as in PMID 26592798; details: read-out: ITC Kd; cited from earlier work
[2] = target: T1, hTEAD4 (nonacylated) (Homo sapiens, UniProt Q15561); assay: Thiol conjugation assay (CPM probe); type: binding; details: for Inhibition of the CPM fluorescence signal increase: assay validation with known central pocket binders; for fold reduction of TEAD binding in the thiol conjugation assay: relative to 19
T1 construct: N-terminal His6-tagged hTEAD4^217–434 was subcloned; made in house; host or cells: Escherichia coli BL21-CodonPlus (DE3)-RIPL
Protocol: To serially diluted solutions of the tested compounds in 5 μL of assay buffer [HEPES (25 mM) and NaCl (150 mM) pH 6.5], freshly prepared 5 μL of 0.45 μM protein solution was added and incubated at room temperature for 10 min, followed by addition of 5 μL of 0.45 μM CPM solution, giving a 15 μL final assay volume, 150 nM protein, and 150 nM CPM. The assay plate was shaken at room temperature for 1 h before measuring the fluorescence (Ex/Em: 380/470 nm). Compound 19 was used as an internal standard to determine 100% inhibition.
A library of 14,000 compounds was screened in 1536-well plates using pH 6.5 MES buffer. To the preincubated solution of nonacylated hTEAD4 (0.15 μM final concentration) and compound solution (12.5 μM final concentration), CPM (0.15 μM final concentration) was added, and the assay plates were incubated at room temperature for 50 min before measuring the fluorescence (Ex/Em: 360/465 nm) using Spectramax Paradigm (Molecular Devices). Z′ = 0.6–0.8 (10-plates).

[3] = target: T1, hTEAD4 (nonacylated); assay: FP-based competitive binding assay with FITC-palmitate tracer; details: relative to 19; for fold increase in the IC50 values: said of the IC50 values of both assays
Protocol: To serially diluted solution of the tested compounds in 5 μL assay buffer [HEPES (25 mM) and NaCl (150 mM), pH 6.5 buffer], freshly prepared 5 μL of 0.15 μM protein solution was added and incubated at room temperature for 10 min followed by 5 μL of 30 nM FITC-palmitate solution, giving 15 μL final assay volume, 50 nM protein, and 10 nM tracer. The assay plate was shaken at room temperature for 1 h before measuring the FP (Ex/Em: 485/535 nm).

[4] = target: T1, hTEAD4 (nonacylated); assay: Differential scanning fluorimetry; type: binding; details: 20 μM protein, 80 μM inhibitor
Protocol: Nonacylated hTEAD4 (20 μM) was incubated in the absence or presence of inhibitors (80 μM) at 25 °C for 10 min. Then, SYPRO orange (Sigma-Aldrich) at a final concentration of 5× was added and the mixture was heated at a ramp rate of 1 °C/min in a qPCR machine (Applied Biosystems). The derivative of the SYPRO orange fluorescent intensity is plotted as a function of temperature.

[5] = target: T1, hTEAD4 (nonacylated); assay: Whole-protein ESI–MS of covalent modification; type: binding; details: 8 equiv of compound, 1 h, rt
Protocol: The protein solution (1 μL 5 μM) was injected to UPLC-MS (ThermoScientific_UltiMate 3000 LC coupled to a Velos Pro MS) through a desalting column (MassPREP Online desalting, 2.1 × 10 mm). For reactions, 1 μM of the protein was incubated at room temperature for 1 h with 8 equiv of the compound in HEPES (25 mM) and NaCl (150 mM) pH 6.5 buffer. Then, the mixture was centrifuged before injecting 5 μL. The deconvolution of m/z values was performed using Promass Xcalibur software.

[6] = target: T2, mTEAD4 (nonacylated) (Mus musculus, UniProt Q62296); assay: 1H–15N HSQC NMR; type: binding; details: 0.5 mM compound, versus DMSO
T2 construct: made in house
Protocol: The ^13C/^15N-labeled mTEAD4 was prepared following a protocol established earlier,[45] and the protein was deacylated as described above for hTEAD4. ^1H–^15N HSQC spectra in the presence of DMSO or the test compound (0.5 mM) were collected at 37 °C on a Bruker 600 MHz magnet equipped with a cryoprobe in 20 mM HEPES, pH 7.3 buffer containing 150 mM NaCl and 1 mM DTT. The spectra were processed and overlaid.

[7] = target: T3, hTEAD4 (nonacylated) with human YAP50–100 (Homo sapiens, UniProt Q15561); assay: FP-based competitive TEAD–YAP interaction assay (FITC-hYAP50–100); type: binding; details: versus 19
T3 construct: N-terminal His6-tagged hTEAD4^217–434 was subcloned; made in house; host or cells: Escherichia coli BL21-CodonPlus (DE3)-RIPL (TEAD4); solid-phase synthesis (YAP peptide)
Protocol: All the TEAD–YAP binding experiments were performed in phosphate-buffered saline (PBS) (pH 7.5).
To serially diluted solution of the tested compounds in 5 μL of PBS, freshly prepared 5 μL of protein solution was added and incubated at room temperature for 10 min followed by addition of 5 μL of FAM-YAP^50–100 solution. The assay plate was shaken at room temperature for 1 h before measuring the FP (Ex/Em: 485/535 nm). Final protein and FAM concentrations are as follows (FAM/protein): hTEAD4 (nonacylated): 2 nM/5 nM, hTEAD4 (acylated): 3 nM/15 nM, mTEAD4_Cys360Ser: 10 nM/50 nM, and mTEAD4_Cys360Ala: 10 nM/50 nM.

[8] = Assay media stability (HPLC); type: physicochemical; details: MES buffer, pH 6.5, 1 h, rt
Protocol: The compounds were incubated in MES (25 mM), pH 6.5 buffer or HEPES (25 mM) and NaCl (150 mM) pH 6.5 buffer for an hour at room temperature before injecting into a reverse-phase HPLC system (ThermoScientific_Ultimate 3000) equipped with a C18 column (2/50 Nucleodur C18 gravity 1.8 μm von Macherey-Nagel).

[9] = test system: TEAD target gene ANKRD1; assay: RT-qPCR of TEAD target gene expression in HEK293 cells; type: cell-based; details: 6 h
Protocol: HEK293 cells were treated with DMSO or the indicated compound for the indicated duration. RNA was extracted using the RNeasy Plus Mini Kit (QIAGEN, Hilden, Germany) following the manufacturer’s procedure. DNA was removed on the column by DNase digestion with the RNase-free DNase Set (QIAGEN, Hilden, Germany) according to the manufacturer’s instructions. Following the manufacturer’s protocol, cDNA templates were synthesized from 700 ng total RNA using the QuantiTect Reverse Transcription Kit (QIAGEN, Hilden, Germany).
The expression levels of the TEAD target gene ANKRD1 was assessed by real-time quantitative PCR. A total of 100 ng of cDNA was amplified using 500 nM gene-specific primers and SsoAdvanced Universal SYBR Green Supermix (Bio-Rad Laboratories, Feldkirchen, Germany) in a total volume of 10 μL for 50 cycles. All measurements were performed in both technical and biological triplicates using a CFX96 Touch Real-Time PCR Detection System (Bio-Rad Laboratories, Feldkirchen, Germany).
The sequences of primers for ANKRD1 were forward 5′-[…]-3′ and reverse 5′-[…]-3′. The sequences of primers for GAPDH were forward 5′-[…]-3′ and reverse 5′-[…]-3′.

[10] = target: T1, hTEAD4 (nonacylated); assay: Saturation binding of FITC-palmitate (FP); details: 10 nM tracer
Protocol: To a serially diluted solution of nonacylated hTEAD4 in 12 μL of assay buffer [HEPES (25 mM) and NaCl (150 mM) pH 6.5], 8 μL of 25 nM FITC-palmitate solution was added, giving 20 μL final assay volume with a 10 nM tracer. The assay plate was incubated at room temperature for 1 h before measuring FP (Ex/Em: 485/535 nM).

[11] = parameters: method as in PMID 21164073; details: acidic 2-OH group; cited from earlier work

T1 sequence (Q15561 217-434): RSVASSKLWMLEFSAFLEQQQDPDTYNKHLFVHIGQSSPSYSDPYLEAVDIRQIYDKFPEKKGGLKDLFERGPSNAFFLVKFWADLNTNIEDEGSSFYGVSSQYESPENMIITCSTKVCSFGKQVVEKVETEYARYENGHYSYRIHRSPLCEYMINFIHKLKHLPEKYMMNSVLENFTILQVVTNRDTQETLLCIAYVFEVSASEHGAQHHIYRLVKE
T2 sequence (Q62296 210-427 limits assumed): as the sequence (Q15561 217-434) above, with V3I, Q19R, G35S, A48T, D67E, E91D, S96A, S142L counted along it
T3 sequence (Q15561 217-434): as the sequence (Q15561 217-434) above

Compound: O=C(O)c1ccccc1Nc1cccc(C(F)(F)F)c1 [Compound 1, flufenamic acid, reference compound]
- Kd [1]: 73 µM
- Inhibition of the CPM fluorescence signal increase [2]: inhibited the signal increase in a dose-dependent manner

Compound: O=C(O)c1cccnc1Nc1cccc(C(F)(F)F)c1 [Compound 2, niflumic acid, reference compound]
- Kd [1]: 28 µM
- Inhibition of the CPM fluorescence signal increase [2]: inhibited the signal increase in a dose-dependent manner

Compound: O=C(CCl)c1ccccc1Nc1cccc(C(F)(F)F)c1 [Compound 3, reference compound]
- Inhibition of the CPM fluorescence signal increase [2]: inhibited the signal increase in a dose-dependent manner

Compound: O=c1cc(CO)oc(C(Nc2ncccn2)c2ccccc2)c1O (stereo not shown) [Compound 26, 3-Hydroxy-6-(hydroxymethyl)-2-(phenyl(pyrimidin-2-ylamino)methyl)-4H-pyran-4-one]
- fold increase in the IC50 values [3]: more than 20 fold

Compound: O=c1cc(CO)oc(C(Nc2nccs2)c2ccccc2)c1O (stereo not shown) [Compound 27, 3-Hydroxy-6-(hydroxymethyl)-2-(phenyl(thiazol-2-ylamino)methyl)-4H-pyran-4-one]
- fold increase in the IC50 values [3]: more than 20 fold
- Tm shift [4]: did not induce any change

Compound: O=c1cc(CO)oc(C(Nc2nc3ccccc3[nH]2)c2ccccc2)c1O (stereo not shown) [Compound 28, 2-(((1H-Benzo[d]imidazol-2-yl)amino)(phenyl)methyl)-3-hydroxy-6-(hydroxymethyl)-4H-pyran-4-one]
- fold increase in the IC50 values [3]: more than 20 fold

Compound: O=c1cc(CO)oc(C(Nc2ccccc2)C2CCCCC2)c1O (stereo not shown) [Compound 30, 2-(Cyclohexyl(phenylamino)methyl)-3-hydroxy-6-(hydroxymethyl)-4H-pyran-4-one]
- fold reduction of TEAD binding in the thiol conjugation assay [2]: 100 fold

Compound: CC(C)C(Nc1ccccc1)c1oc(CO)cc(=O)c1O (stereo not shown) [Compound 31, 3-Hydroxy-6-(hydroxymethyl)-2-(2-methyl-1-(phenylamino)propyl)-4H-pyran-4-one]
- fold reduction of TEAD binding in the thiol conjugation assay [2]: 100 fold

Compound: O=c1cc(CO)oc(CNc2ccccc2)c1O [Compound 32, 3-Hydroxy-6-(hydroxymethyl)-2-((phenylamino)methyl)-4H-pyran-4-one]
- fold reduction of TEAD binding in the thiol conjugation assay [2]: 100 fold

Compound: O=c1cc(CO)oc(C(Nc2ccccc2)c2ccccn2)c1O (stereo not shown) [Compound 40, 3-Hydroxy-6-(hydroxymethyl)-2-((phenylamino)(pyridin-2-yl)methyl)-4H-pyran-4-one]
- fold lowering of inhibitory activity in the FP assay [3]: 2–3 fold

Compound: O=c1cc(CO)oc(C(Nc2ccccn2)c2ccc(Br)cc2)c1O (stereo not shown) [Compound 42, 2-((4-Bromophenyl)(pyridin-2-ylamino)methyl)-3-hydroxy-6-(hydroxymethyl)-4H-pyran-4-one]
- ΔTm at 80 µM ([4]; read-out: Tm shift): -2 °C

Compound: COc1c(C(Nc2ccccc2)c2ccccc2)oc(CO)cc1=O (stereo not shown) [Compound 45, 6-(Hydroxymethyl)-3-methoxy-2-(phenyl(phenylamino)methyl)-4H-pyran-4-one]
- modification of the protein (whole-protein ESI–MS) [5]: modification of TEAD was not observed
- effect on 1H–15N HSQC spectrum [6]: did not induce a significant change
- fold lower activity in TEAD–YAP interaction assay [7]: > 100 fold
- stability in assay medium [8]: stable
- activity in the thiol conjugation assay [2]: inactive
- Tm shift [4]: did not induce any change
- reduction of the mRNA level of ANKRD1 compared to the DMSO control [9]: only a minimal effect

Compound: COc1c(C(Nc2ccccn2)c2ccccc2F)oc(CO)cc1=O (stereo not shown) [Compound 46, 2-((2-Fluorophenyl)(pyridin-2-ylamino)methyl)-6-(hydroxymethyl)-3-methoxy-4H-pyran-4-one]
- activity in the thiol conjugation assay [2]: inactive

Compound: CCCCCCCCCCCCCCCC(=O)NCCCOCCOCCOCCCNC(=S)Nc1ccc(-c2c3ccc(=O)cc-3oc3cc(O)ccc23)c(C(=O)O)c1 [Compound S4, 2-(6-Hydroxy-3-oxoi-3H-xanthen-9-yl)-5-(3-(15-oxo-4,7,10-trioxa-14-azatriacontyl)thioureido)benzoic Acid]
- Kd [10]: 0.028 µM

Compound: O=c1cc(CO)occ1O [kojic acid]
- pKa [11]: 7.9

Compound: CCCCCCCCCCCCCCCC(=O)O [palmitic acid, reference compound]
- Inhibition of the CPM fluorescence signal increase [2]: inhibited the signal increase in a dose-dependent manner
